Measured values: PubChem BioAssay (NCI)
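Five compound concentrations were applied to cells in 96-well plates for 48 hours; endpoints were derived by simple linear interpolation of the resulting dose-response curve. At the TGI there is no net growth.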

Experiments:
Assay in all cases: NCI tumour cell line growth inhibition, 48 h
[1] = test system: DLD-1 colon
[2] = test system: KM20L2 colon
[3] = test system: SNB-78 CNS
[4] = test system: HOP-18 NSCLC
[5] = test system: XF 498 CNS
[6] = test system: RXF-631 renal

**Q.** How did the TGI [1] turn out when `CSc1ccc2c(cc1=O)C(NC(=O)c1ccc(OC(C)=O)cc1)CCc1cc(O)c(O)c(O)c1-2` (stereo unspecified) was run?
**A.** 35.8 µM

**Q.** And the TGI [2]?
**A.** > 100 µM

**Q.** And the TGI [3]?
**A.** > 100 µM

**Q.** How did the TGI [1] turn out when `NC(=S)N1N=C2c3ccccc3CC[C@H]2[C@@H]1c1cccs1` was run?
**A.** > 100 µM

**Q.** What about the TGI [4] of the same compound?
**A.** > 100 µM

**Q.** What about the TGI [2] of the same compound?
**A.** 62.9 µM

**Q.** What about the TGI [3] of the same compound?
**A.** > 100 µM

**Q.** And the TGI [5]?
**A.** > 100 µM

**Q.** Which TGI [1] does the source give for `N#CC(C#N)=C(N)/C(C#N)=C/c1cc(O)c(O)c(Br)c1` here?
**A.** > 100 µM

**Q.** And the TGI [2]?
**A.** > 100 µM

**Q.** What about the TGI [3] of the same compound?
**A.** > 100 µM

**Q.** And the TGI [5]?
**A.** > 100 µM

**Q.** Which results are given for `O=C1c2nn(-c3ccccc3)nc2C(c2ccccc2)N1c1ccccc1` (stereo unspecified)?
**A.** TGI [1]: > 100 µM; TGI [4]: > 100 µM; TGI [2]: > 100 µM; TGI [3]: > 100 µM; TGI [5]: > 100 µM

**Q.** For `CCOc1ccc(N=Nc2ccc3oc(=O)c(C(=O)Nc4ccc(OC)cc4)cc3c2)cc1`, which TGI [1] is on record?
**A.** 61.4 µM

**Q.** And the TGI [2]?
**A.** > 100 µM

**Q.** And the TGI [3]?
**A.** 82.8 µM

**Q.** What does the source list for `NCC(NC(=O)OCc1ccccc1)C(=O)O` (stereo unspecified)?
**A.** TGI [1]: > 50 µM; TGI [4]: > 50 µM; TGI [2]: > 50 µM; TGI [3]: > 50 µM

**Q.** `O=c1c2ccccc2nc(-c2ccccc2)n1NC(=S)Nc1ccc(Cl)cc1[N+](=O)[O-]` was tested. Which TGI [1] did it give?
**A.** > 100 µM

**Q.** What about the TGI [4] of the same compound?
**A.** > 100 µM

**Q.** Which TGI [4] does the source give for `CC1(C)C2CCC3(OCCO3)C1C1OC12` (stereo unspecified) here?
**A.** > 100 µM

**Q.** And the TGI [2]?
**A.** > 100 µM

**Q.** What about the TGI [6] of the same compound?
**A.** > 100 µM

**Q.** What about the TGI [3] of the same compound?
**A.** > 100 µM

**Q.** And the TGI [5]?
**A.** > 100 µM

**Q.** Which TGI [1] does the source give for `CC(C)C(=O)/C=C/c1ccc(Cl)cc1` here?
**A.** 32.2 µM

**Q.** And the TGI [4]?
**A.** 13.8 µM

**Q.** What about the TGI [2] of the same compound?
**A.** > 100 µM

**Q.** And the TGI [5]?
**A.** 20.5 µM

**Q.** How did the TGI [1] turn out when `CC(C)c1cccc(C(C)C)c1NC(=O)C(=O)C(C(=O)c1ccc2ccccc2c1)C1OC(=O)c2ccccc21` (stereo unspecified) was run?
**A.** > 100 µM

**Q.** What about the TGI [3] of the same compound?
**A.** > 100 µM

**Q.** Which TGI [1] does the source give for `O=C1C2CCC(C2)C12CC1(c3ccccc3)C(=O)c3ccccc3N1O2` (stereo unspecified) here?
**A.** > 100 µM

**Q.** What about the TGI [4] of the same compound?
**A.** > 100 µM

**Q.** And the TGI [2]?
**A.** > 100 µM

**Q.** And the TGI [3]?
**A.** > 100 µM

**Q.** What about the TGI [5] of the same compound?
**A.** > 100 µM

**Q.** With `COc1ccc([N-]/C(=N\n2c(=O)c(C)nn(C)c2=S)N(c2ccc(OC)cc2)c2nn3c(=O)c(C)n[n+](C)c3s2)cc1` as the compound, how does the TGI [1] read?
**A.** > 100 µM

**Q.** And the TGI [4]?
**A.** > 100 µM

**Q.** What about the TGI [2] of the same compound?
**A.** > 100 µM

**Q.** What about the TGI [3] of the same compound?
**A.** > 100 µM

**Q.** Which TGI [1] does the source give for `COc1cc(C(C)c2cc3c(cc2OCCCCOc2cc4c(cc2C(C)c2cc(OC)c(OC)c(OC)c2)OCO4)OCO3)cc(OC)c1OC` (stereo unspecified) here?
**A.** > 100 µM

**Q.** And the TGI [2]?
**A.** > 100 µM

**Q.** What about the TGI [6] of the same compound?
**A.** > 100 µM

**Q.** What about the TGI [3] of the same compound?
**A.** 64 µM

**Q.** What about the TGI [5] of the same compound?
**A.** 89.2 µM

**Q.** `CC(=O)OC1CC2(c3ccccc3)C(=O)c3ccccc3N2O1` (stereo unspecified) was tested. Which TGI [1] did it give?
**A.** > 100 µM

**Q.** And the TGI [4]?
**A.** > 100 µM

**Q.** What about the TGI [2] of the same compound?
**A.** > 100 µM

**Q.** What about the TGI [3] of the same compound?
**A.** > 100 µM

**Q.** What about the TGI [5] of the same compound?
**A.** > 100 µM

**Q.** Which TGI [1] does the source give for `CCN(CC)C(=S)SC1CCOP(=O)(N(CCCl)CCCl)N1C` (stereo unspecified) here?
**A.** 21.3 µM

**Q.** And the TGI [4]?
**A.** > 100 µM

**Q.** What about the TGI [2] of the same compound?
**A.** > 100 µM

**Q.** What about the TGI [3] of the same compound?
**A.** > 100 µM

**Q.** For `O=c1c2cc(Br)cc(Br)c2[nH]c(=S)n1-c1ccccc1`, which TGI [1] is on record?
**A.** > 100 µM

**Q.** What about the TGI [4] of the same compound?
**A.** > 100 µM

**Q.** And the TGI [2]?
**A.** > 100 µM

**Q.** What about the TGI [6] of the same compound?
**A.** > 100 µM

**Q.** What about the TGI [3] of the same compound?
**A.** > 100 µM

**Q.** And the TGI [5]?
**A.** 78.9 µM

**Q.** Which results are given for `CC12CC[C@H](O)C(C)(C)[C@H]1CC[C@](C)(O)C2COc1ccc2ccc(=O)oc2c1` (stereo partly specified)?
**A.** TGI [1]: > 100 µM; TGI [4]: > 100 µM; TGI [2]: > 100 µM; TGI [3]: > 100 µM; TGI [5]: > 100 µM
